Converted amounts (≈) assume the structure as drawn.
Legend:
[1] = Antioxidant activity assessed as ferric ion reducing activity using fe3+-TPTZ at 20 ug/ml by FRAP assay; assay type: functional
[2] = test system: Radical scavenging activity; assay: Antioxidant activity assessed as DPPH radical scavenging activity; assay type: functional
Liver [3] = assay: Inhibition of H2O2-induced lipid peroxidation in rat liver homogenates assessed as malondialdehyde level at 80 ug/ml after 4 hrs; assay type: functional, tissue-based
[4] = Antioxidant activity assessed as ferric ion reducing activity using fe3+-TPTZ at 40 ug/ml by FRAP assay; assay type: functional
Liver [5] = assay: Inhibition of H2O2-induced lipid peroxidation in rat liver homogenates assessed as malondialdehyde level after 4 hrs; assay type: functional, tissue-based
[6] = Antioxidant activity assessed as ferric ion reducing activity using fe3+-TPTZ at 80 ug/ml by FRAP assay; assay type: functional
Liver [7] = assay: Inhibition of H2O2-induced lipid peroxidation in rat liver homogenates assessed as malondialdehyde level at 32 ug/ml after 4 hrs; assay type: functional, tissue-based

Oc1ccc([C@H]2Oc3cc(O)cc(O)c3C[C@H]2O)cc1 [EPIAFZELECHIN (2R,3R)(-)] showed an Activity [1] of 493 µM/L, an IC50 [2] of 9.25 µg/mL (≈ 33.7 µM) and an inhibition (Liver [3]) of 81.8%. The Activity [4] was 978 µM/L, the Activity (Liver [5]) was 14.4 nM/ml and the Activity [6] was 1510 µM/L.

O=c1c(O)c(-c2ccc(O)c(O)c2)oc2cc(O)cc(O)c12 [QUERCETIN] gave an IC50 [2] of 23.53 µg/mL (≈ 77.9 µM), an inhibition (Liver [7]) of 75.4% and an Activity (Liver [5]) of 19.4 nM/ml.
